From patent US9988381B2, “Five-member-heterocycle fused pyridine compounds, method of producing the same, and use thereof” (SHANGHAI INSTITUTE OF MATERIA MEDICA, CHINESE ACADEMY OF …, priority 2013, dated 2018)
Where two headings read alike, the source gives them in different places.

Assays:
[1] = molecular target: T1, c-Met kinase domain recombinant protein (Homo sapiens, UniProt P08581); test: biochemical; conditions: for inhibition at 0.1 µM: read-out: Average inhibition rate at 0.1 μM (%); for inhibition at 1 µM: read-out: Average inhibition rate at 1 μM (%); for inhibition at 10 µM: read-out: Average inhibition rate at 10 μM (%)
T1 construct: 50 μL diluted solution of c-Met kinase domain recombinant protein in reaction buffer was added to initiate the reaction
T1 sequence (P08581 1078-1345 limits assumed): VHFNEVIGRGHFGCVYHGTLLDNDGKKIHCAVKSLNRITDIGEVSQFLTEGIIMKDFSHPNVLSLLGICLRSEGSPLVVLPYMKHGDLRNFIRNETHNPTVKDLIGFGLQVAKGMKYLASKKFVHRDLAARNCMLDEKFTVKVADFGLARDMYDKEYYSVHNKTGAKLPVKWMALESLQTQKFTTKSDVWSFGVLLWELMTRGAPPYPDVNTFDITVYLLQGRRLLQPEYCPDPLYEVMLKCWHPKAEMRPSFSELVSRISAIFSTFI
Summary of the method: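 ELISA on plates coated with Poly(Glu,Tyr)4:1 (20 μg/mL coating solution). Recombinant c-Met kinase domain reacted with 5 μM ATP in HEPES pH 7.4 with Mg/Mn, vanadate and DTT for 1 hour at 37° C. Phosphotyrosine was detected with PY99 and HRP secondary antibody, read at 490 nm, and IC50 was taken from a four-parameter fit.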

[2] = molecular target: T1, c-Met kinase domain recombinant protein; test: biochemical; conditions: read-out: Inhibition rate at 10 μM (%)
Summary of the method: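 ELISA on plates coated with Poly(Glu,Tyr)4:1 (20 μg/mL), kinase reaction with c-Met kinase domain and ATP in HEPES pH 7.4 buffer with MgCl2, MnCl2, Na3VO4 and DTT, 1 h at 37 °C. Phosphotyrosine detected with PY99 and HRP secondary antibody, read at 490 nm; inhibition rate calculated against ATP-free control.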

MKN45 cell = test: Test III: growth inhibition of gastric tumor cell MKN45 (SRB); type: cell-based; conditions: Homo sapiens; for inhibition at 0.2 µM: MKN-45, read-out: Cell proliferation inhibition rate at 200 nM (%), MKN45, 200 nM
Procedure: (§1) Assays on the growth inhibition of the compounds against gastric tumor cell MKN45, non-small cell carcinoma EBC-1 cell (both are MET persistent activated cell lines due to MET gene amplification, and are Met dependent tumor cell lines, MKN45 cell was purchased from JCRB, Japan, EBC-1 cell was purchased from ATCC, USA) were detected using sulforhodamine B (SRB) staining. […] After incubation with compound for 72 hours, the incubation was terminated, adherent cells were retained and medium was discarded, 10% (w/v) trichloroacetic acid (100 μL pre well) was added, the cells were fixed at 4° C. for 1 hour, then rinsed with distilled water for 5 times, after dried at room temperature, SRB solution (4 mg/mL, dissolved in 1% glacial acetic acid) was added at 100 μL per well, incubated and stained at room temperature for 15 minutes, then rinsed with 1% glacial acetic acid for 5 times to remove any unbound SRB, dried at room temperature, then 10 mM Tris solution was added at 100 μL per well, the optical density (OD) value at 515 nm was measured using VERSMax microplate reader.
(§2) Experiments were conducted in duplicates. IC50 value was calculated by fitting the data for a four parameter fit using inhibition curve, the results are shown below in Table 2.

EBC-1 cell = test: Test III: growth inhibition of non-small cell carcinoma EBC-1 cell (SRB); type: cell-based; conditions: Homo sapiens, EBC-1, 72 h; for inhibition at 0.2 µM: read-out: Cell proliferation inhibition rate at 200 nM (%); for inhibition at 1 µM: read-out: Cell proliferation inhibition rate at 1 μM (%)
Procedure: as §1, §2

[3] = tested on: human lung cancer EBC-1 xenograft; test: Test IV: human non-small cell lung cancer EBC-1 xenograft growth in nude mice; type: in vivo
Procedure: EBC-1 cells were implanted subcutaneously in the right axilla of nude mice at 5×10^6 cells per mouse, xenograft developed thereby was passaged in nude mice for 3 generations prior to use. Tumor tissue at rapid growth phase was taken, minced under sterile condition into pieces of about 1.5 mm^3, then implanted subcutaneously in the right axilla of nude mice.
Xenografted tumor diameters were measured twice per week, and body weights of the mice were measured at the same time. Tumor Volume (TV) was calculated by the following equation: TV=1/2×a×b^2, wherein a, b refers to the length and width, respectively. Based on the measurement, Relative Tumor Volume (RTV) was calculated by the following equation: RTV=Vt/V0, wherein V0 is the tumor volume measured when divided for administration (i.e., do), Vt is the tumor volume measured at each timepoint.

[4] = MKN-45, 72 h, read-out: Cell proliferation inhibition rate at 1 μM (%)
[5] = MKN-45, read-out: Cell proliferation inhibition rate at 1 μM (%), MKN45, 1 μM, 72 hours

Structure (SMILES) | IC50 [1] [nM] | inhibition at 0.1 µM [1] [%] | inhibition at 1 µM [1] [%] | inhibition at 10 µM [1] [%] | inhibition at 10 µM [2] [%] | inhibition at 1 µM (MKN45 cell; [4]) [%] | inhibition at 1 µM (MKN45 cell; [5]) [%] | inhibition at 0.2 µM (MKN45 cell; 72 hours) [%] | inhibition at 0.2 µM (EBC-1 cell) [%] | inhibition at 1 µM (EBC-1 cell) [%] | TV (mm^3, mean ± SD) d21 ([3]; 50 mg/kg po qd/21) | Weight (g) d21 ([3]; 50 mg/kg po qd/21) [g] | GI (%) ([3]; 50 mg/kg po qd/21, d21) | RTV (mean ± SD) ([3]; 50 mg/kg po qd/21, d21) | T/C (%) ([3]; 50 mg/kg po qd/21, day 21) | TV (mm^3, mean ± SD) d21 ([3]; 100 mg/kg po qd/21) [mm^3] | Weight (g) d21 ([3]; 100 mg/kg po qd/21) [g] | GI (%) ([3]; 100 mg/kg po qd/21, d21) | RTV (mean ± SD) ([3]; 100 mg/kg po qd/21, d21) | T/C (%) ([3]; 100 mg/kg po qd/21, day 21)
Cn1cc(-c2cnc3cnn(S(=O)(=O)c4cnc5ccc(-c6ccsc6)cn45)c3c2)cn1 [Example 72, 1-{[6-(3-thiophene)-imidazo[1,2-a]pyridine]-3-sulfonyl}-6-[(1-methyl)-4-pyrazolyl]-1-H-pyrazolo[4,3-b]pyridine] | 0.04 ± 0.04 | 70.1 | 80.3 | 76.5 | 80.9 | 72.8 | – | – | – | – | – | – | – | – | – | – | – | – | – | –
CN(C)C(=O)c1ccc(-c2ccc3ncc(S(=O)(=O)n4ncc5ncc(-c6cnn(C)c6)cc54)n3c2)cc1 [Example 73, 1-{[6-(4-dimethylaminocarbonylphenyl)-imidazo[1,2-a]pyridine]-3-sulfonyl}-6-[(1-methyl)-4-pyrazolyl]-1-H-pyrazolo[4,3-b]pyridine] | – | 78 | 72.8 | 76.9 | 59.6 | – | 14.4 | – | – | – | – | – | – | – | – | – | – | – | – | –
Cn1cc(-c2cnc3cnn(S(=O)(=O)c4cnc5ccc(-c6cnn(C7CCN(C(=O)OC(C)(C)C)CC7)c6)cn45)c3c2)cn1 [Example 76, 1-{(6-{{1-[(1-t-butoxycarbonyl)-4-piperidinyl]}-4-pyrazolyl}-imidazo[1,2-a]pyridine)-3-sulfonyl}-6-[(1-methyl)-4-pyrazolyl]-1-H-pyrazolo[4,3-b]pyridine] | – | 78 | 75.5 | 78.3 | > 76.3 | – | 14.9 | – | – | – | – | – | – | – | – | – | – | – | – | –
Cn1cc(-c2cnc3cnn(S(=O)(=O)c4cnc5ccc(-c6ccc(F)cc6)cn45)c3c2)cn1 [Example 81, 1-{[6-(4-fluorophenyl)-imidazo[1,2-a]pyridine]-3-sulfonyl}-6-[(1-methyl)-4-pyrazolyl]-1-H-pyrazolo[4,3-b]pyridine] | – | 72.9 | 73.6 | 80.2 | > 68.7 | – | 24.7 | – | – | – | – | – | – | – | – | – | – | – | – | –
Cc1ccc(-c2ccc3ncc(S(=O)(=O)n4ncc5ncc(-c6cnn(C)c6)cc54)n3c2)cc1 [Example 90, 1-{[6-(4-methylphenyl)-imidazo[1,2-a]pyridine]-3-sulfonyl}-6-[(1-methyl)-4-pyrazolyl]-1-H-pyrazolo[4,3-b]pyridine] | – | 69 | 83 | 81.1 | > 72.2 | – | 17.6 | – | – | – | – | – | – | – | – | – | – | – | – | –
Cn1cc(-c2cnc3cnn(S(=O)(=O)c4cnc5ccc(-c6ccc(CN7CCOCC7)cc6)cn45)c3c2)cn1 [Example 91, 1-{[6-(4-morpholinomethylphenyl)-imidazo[1,2-a]pyridine]-3-sulfonyl}-6-[(1-methyl)-4-pyrazolyl]-1-H-pyrazolo[4,3-b]pyridine] | – | 77.3 | 85.5 | 74.1 | > 69.4 | – | 72.9 | – | – | – | – | – | – | – | – | – | – | – | – | –
COc1ccccc1-c1ccc2ncc(S(=O)(=O)n3ncc4ncc(-c5cnn(C)c5)cc43)n2c1 [Example 97, 1-{[6-(2-methoxyphenyl)-imidazo[1,2-a]pyridine]-3-sulfonyl}-6-[(1-methyl)-4-pyrazolyl]-1-H-pyrazolo[4,3-b]pyridine] | 0.5 ± 0.1 | 51.7 | 62.7 | 65.5 | > 63.8 | 67.8 | – | – | – | – | – | – | – | – | – | – | – | – | – | –
Cn1cc(-c2cnc3cnn(S(=O)(=O)c4cnc5ccc(-c6ccc(F)nc6)cn45)c3c2)cn1 [Example 99, 1-{[6-(2-fluoro-5-pyridinyl)-imidazo[1,2-a]pyridine]-3-sulfonyl}-6-[(1-methyl)-4-pyrazolyl]-1-H-pyrazolo[4,3-b]pyridine] | – | 55.5 | 66.2 | 71.8 | > 73.3 | – | 67.9 | 48.5 | – | – | – | – | – | – | – | – | – | – | – | –
Cn1cc(-c2cnc3cnn(S(=O)(=O)c4cnc5ccc(-c6cccc(C#N)c6)cn45)c3c2)cn1 [Example 100, 1-{[6-(3-cyanophenyl)-imidazo[1,2-a]pyridine]-3-sulfonyl}-6-[(1-methyl)-4-pyrazolyl]-1-H-pyrazolo[4,3-b]pyridine] | – | 83.7 | 87.3 | 85.4 | > 60.4 | – | 66.6 | 63.8 | – | – | – | – | – | – | – | – | – | – | – | –
CNC(=O)c1ccc(-c2ccc3ncc(S(=O)(=O)n4ncc5ncc(-c6cnn(CCN(C)C)c6)cc54)n3c2)cc1F [Example 102, 1-{(6-(3-fluoro-4-methylaminocarbonylphenyl)-imidazo[1,2-a]pyridine)-3-sulfonyl}-6-[(2-dimethylaminoethyl)-4-pyrazolyl]-1-H-pyrazolo[4,3-b]pyridine] | – | 73.7 | 85.3 | 95.4 | > 65.5 | – | 67.9 | 63.8 | – | – | – | – | – | – | – | – | – | – | – | –
CN1CCN(C(=O)c2ccc(-c3cnc4cnn(S(=O)(=O)c5cnc6ccc(-c7cnn(C)c7)cn56)c4c3)cc2)CC1 [Example 142, 1-{(6-[(1-methyl)-4-pyrazolyl]-imidazo[1,2-a]pyridine)-3-sulfonyl}-6-[4-(4-methylpiperazine-1-carbonyl)phenyl]-1-H-pyrazolo[4,3-b]pyridine] | 0.5 ± 0.1 | 89.4 | 91.3 | – | – | – | – | – | 92.1 | 92.6 | 259 ± 421 ^ mm^3 | 21.0 | 90.65 | 2.23 ± 3.89 | 16.91 | 21 ± 34 | 20.9 | 106.70 | 0.14 ± 0.21 | 1.05
CC(C)N1CCC(n2cc(-c3cnc4cnn(S(=O)(=O)c5cnc6ccc(-c7cnn(C)c7)cn56)c4c3)cn2)CC1 [Example 145, 1-{(6-[(1-methyl)-4-pyrazolyl]-imidazo[1,2-a]pyridine)-3-sulfonyl}-6-{(1-[(1-isopropyl)-4-piperidinyl]}-4-pyrazolyl}-1-H-pyrazolo[4,3-b]pyridine] | 0.6 ± 0.1 | 90.6 | 87.1 | – | – | – | – | – | 92.4 | 92.8 | 36 ± 49 mm^3 | 19.9 | 106.14 | 0.31 ± 0.50 | 2.36 | 8 ± 13 | 19.1 | 107.77 | 0.05 ± 0.09 | 0.40
